Experimental data published in patent US8933018B2, “Boron containing polybasic bacterial efflux pump inhibitors and therapeutic uses thereof” (priority 2011, dated 2015).

tested on: P. aeruginosa, PAM1723, overexpressing the MexAB-OprM efflux pump; type: cell-based, Pseudomonas aeruginosa; settings: lowest EPI concentration giving antibacterial activity with levofloxacin at 1/8 of its MIC, MHB, 20 h at 35° C.
Method: All EPI compounds were readily soluble in water and stock solutions were prepared at a final concentration of 10 mg/ml. Stock solutions were further diluted, according to the needs of the particular assay, in Mueller Hinton Broth (MHB). Stock solution was stored at […].
The checkerboard assay was performed in microtiter plates. […] EPIs were diluted in the y-axis, each row containing a single concentration of an EPI. […] The assay was performed in MHB with a final bacterial inoculum of 5 times 10^5 CFU/ml (from an early-log phase culture). Microtiter plates were incubated during 20 h at 35° C. and were read using a microtiter plate reader (Molecular Devices) at 650 nm as well as visual observation using a microtiter plate-reading mirror.

| Compound | MPC8 (Minimum Potentiating Concentration) |
| --- | --- |
| N[C@@H]1CC(NC(=O)CC[C@H](N)C(=O)N[C@H](Cc2ccc(C(F)(F)F)cc2)C(=O)Nc2cc(B(O)O)cc(C(F)(F)F)c2)C[C@H](N)C1 (stereo partly drawn) [Compound 19, 3-((R)-2-((S)-2-amino-5-((1R,3R,5S)-3,5-diaminocyclohexylamino)-5-oxopentanamido)-3-(4-(trifluoromethyl)phenyl)propanamido)-5-(trifluoromethyl)phenylboronic acid] | B (B = MPC8 of 2.5 μg/ml to less than 10 μg/mL.) |
| CC1(C)OB(O)c2cc(NC(=O)[C@@H](CCc3ccc(C(F)(F)F)cc3)NC(=O)[C@@H](N)CCC(=O)N3C4CCC3[C@H](CN)[C@@H]4CN)ccc21 [Compound 42, (2S)-2-amino-5-((2R,3S)-2,3-bis(aminomethyl)-7-azabicyclo[2.2.1]heptan-7-yl)-N-((R)-1-(1-hydroxy-3,3-dimethyl-1,3-dihydrobenzo[c][1,2]oxaborol-6-ylamino)-1-oxo-4-(4-(trifluoromethyl)phenyl)butan-2-yl)-5-oxopentanamide] | A (A = MPC8 of less than 2.5 μg/mL.) |
| NCCN(CCN)C(=O)CC[C@H](N)C(=O)N[C@H](CCc1ccc(C(F)(F)F)cc1)C(=O)NC[C@@H]1OB(O)c2ccccc21 [Compound 37, (S)-2-amino-N5,N5-bis(2-aminoethyl)-N1-((R)-1-(((R)-1-hydroxy-1,3-dihydrobenzo[c][1,2]oxaborol-3-yl)methylamino)-1-oxo-4-(4-(trifluoromethyl)phenyl)butan-2-yl)pentanediamide] | A (A = MPC8 of less than 2.5 μg/mL.) |
| N[C@@H]1C[C@H](N)CN(C(=O)CC[C@H](N)C(=O)N[C@H](CCc2ccc(C(F)(F)F)cc2)C(=O)Nc2cccc(B(O)O)c2)C1 [Compound 24, 3-((R)-2-((S)-2-amino-5-((3R,5S)-3,5-diaminopiperidin-1-yl)-5-oxopentanamido)-4-(4-(trifluoromethyl)phenyl)butanamido)phenylboronic acid] | B (B = MPC8 of 2.5 μg/ml to less than 10 μg/mL.) |
| NCCN(CCN)C(=O)C[C@H](N)C(=O)N[C@H](C(=O)Nc1ccc2c(c1)B(O)OC2)[C@H](O)c1ccc(C(F)(F)F)cc1 [Compound 4, (S)-2-amino-N4,N4-bis(2-aminoethyl)-N1-((1R,2S)-1-hydroxy-3-(1-hydroxy-1,3-dihydrobenzo[c][1,2]oxaborol-6-ylamino)-3-oxo-1-(4-(trifluoromethyl)phenyl)propan-2-yl)succinamide] | C (C = MPC8 of 10 μg/mL or greater.) |
| CC(C)c1ccc(C[C@@H](NC(=O)[C@@H](N)CCC(=O)N(CCN)CCN)C(=O)Nc2ccc3c(c2)B(O)OC3(C)C)cc1 [Compound 78, (S)-2-amino-N5,N5-bis(2-aminoethyl)-N^1-((R)-1-(1-hydroxy-3,3-dimethyl-1,3-dihydrobenzo[c][1,2]oxaborol-6-ylamino)-3-(4-isopropylphenyl)-1-oxopropan-2-yl)pentanediamide] | A (A = MPC8 of less than 2.5 μg/mL.) |
| NCCN(CCN)C(=O)CC[C@H](N)C(=O)N[C@H](CCc1ccc(C(F)(F)F)cc1)C(=O)Nc1cc(B(O)O)c(F)cc1F [Compound 30, 5-((R)-2-((S)-2-amino-5-(bis(2-aminoethyl)amino)-5-oxopentanamido)-4-(4-(trifluoromethyl)phenyl)butanamido)-2,4-difluorophenylboronic acid] | C (C = MPC8 of 10 μg/mL or greater.) |
| CC1(C)OB(O)c2ccc(CNC(=O)[C@@H](Cc3ccc(C(F)(F)F)cc3)NC(=O)[C@@H](N)CCC(=O)N(CCN)CCN)cc21 [Compound 90, (S)-2-amino-N^5,N^5-bis(2-aminoethyl)-N^1-((R)-1-((1-hydroxy-3,3-dimethyl-1,3-dihydrobenzo[c][1,2]oxaborol-5-yl)methylamino)-1-oxo-3-(4-(trifluoromethyl)phenyl)propan-2-yl)pentanediamide] | B (B = MPC8 of 2.5 μg/ml to less than 10 μg/mL.) |
